Among the test systems are UO-31; OVCAR-8; A549; HOP-62; SN12C; UACC-62; DU-145; NCI-H23; UACC-257; RPMI-8226; BT-549; COLO 205; SW-620; SK-MEL-2; NCI-H226; NCI/ADR-RES; MDA-MB-435; SK-MEL-5; Malme-3M.
Common to all, as to assay: NCI-60 cell line screen, 48 h

The text below walks through data of ChEMBL document CHEMBL1201862, “PubChem BioAssay data set” (2004).

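The compound was tested at five concentrations on cells cultured in 96-well plates, with a 48-hour exposure period. At the GI50, growth is halved.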 The source made the active and inactive calls. No stated cut-off is given here; in the data, active = GI50 up to about 1.1 µM and inactive = higher. Non-standard residues stand in square brackets, D forms with d. Residues, ends and D or L forms follow the SMILES beside them. *: point of attachment. Cbz = O=C(OCc1ccccc1)*; Boc = CC(C)(C)OC(=O)*; Aib = CC(C)(N)C(=O)O; OBn = c1ccc(CO*)cc1; OtBu = CC(C)(C)O*; βAla = NCCC(=O)O

For `COC(=O)C1(C(=O)OC)N=C(C)OC1c1ccccc1O` (stereo unspecified), the GI50 with UO-31, in the experiment with OVCAR-8, in the experiment with A549, in the experiment on HOP-62, in the experiment on SN12C and with UACC-62 was > 100 µM (inactive) each time. Besides, the GI50 in the experiment on DU-145, with NCI-H23, with UACC-257, with RPMI-8226, with BT-549 and in the experiment with COLO 205 was > 100 µM (inactive) in each case. The GI50 with SW-620, in the experiment on SK-MEL-2, with NCI-H226, in the experiment on NCI/ADR-RES, with MDA-MB-435 and with SK-MEL-5 was > 100 µM (inactive) throughout.

As for `O=S(=O)(O)c1ccc(O)c(/N=N/c2c(O)ccc3ccccc23)c1`, the GI50 in the experiment with UO-31, in the experiment on OVCAR-8, in the experiment with A549, in the experiment with HOP-62, in the experiment on SN12C and with UACC-62 was > 100 µM (inactive) throughout. Besides, the GI50 in the experiment with DU-145 was > 100 µM (inactive); with NCI-H23, > 100 µM (inactive); with UACC-257, > 100 µM (inactive); in the experiment on RPMI-8226, > 100 µM (inactive); in the experiment with BT-549, > 100 µM (inactive); with COLO 205, 87.3 µM (inactive). The GI50 with SW-620, in the experiment with SK-MEL-2, in the experiment on NCI-H226, in the experiment with NCI/ADR-RES, in the experiment on MDA-MB-435 and in the experiment on SK-MEL-5 was > 100 µM (inactive) in each case.

Turning to `CC(C)(C)OC(=O)CC(NC(=O)OC(C)(C)C)C(=O)NC(CCCCNC(=O)OCc1ccccc1)C(=O)NC(C)(C)C(=O)NCCC(=O)OCc1ccccc1` (stereo unspecified) (Boc-D(OtBu)K(Cbz)[Aib][βAla]-OBn; configuration not given here), the GI50 with UO-31, in the experiment on OVCAR-8, in the experiment with A549, in the experiment on HOP-62, in the experiment with SN12C and with UACC-62 was > 100 µM (inactive) throughout. In addition, the GI50 with DU-145, in the experiment with NCI-H23, in the experiment on RPMI-8226, in the experiment on Malme-3M, in the experiment with BT-549 and in the experiment on COLO 205 was > 100 µM (inactive) each time. For the same compound, the GI50 in the experiment with SW-620, in the experiment on NCI-H226, in the experiment with NCI/ADR-RES, in the experiment with MDA-MB-435 and with SK-MEL-5 was > 100 µM (inactive) each time.

Regarding `Nc1ccc(C23CC4CC(C2)CC(c2ccc(N)cc2)(C4)C3)cc1`, the GI50 was 48.6 µM (inactive) with UO-31; 85.1 µM (inactive) in the experiment with OVCAR-8; > 100 µM (inactive) in the experiment with A549; 60 µM (inactive) in the experiment with HOP-62; 25.1 µM (inactive) in the experiment with SN12C; 29 µM (inactive) in the experiment on UACC-62. Further, the GI50 in the experiment with DU-145 is 51.2 µM (inactive); in the experiment with NCI-H23, 59.6 µM (inactive); in the experiment on UACC-257 it was 75.5 µM (inactive); in the experiment with RPMI-8226, 10.7 µM (inactive); in the experiment with BT-549, 42.9 µM (inactive); in the experiment with COLO 205 it was 2.3 µM (inactive). Also, the GI50 was 3.14 µM (inactive) with SW-620; 35.9 µM (inactive) in the experiment on SK-MEL-2; 11.5 µM (inactive) in the experiment on NCI-H226; 56.8 µM (inactive) with NCI/ADR-RES; 0.164 µM (active) in the experiment on MDA-MB-435; 13.1 µM (inactive) in the experiment on SK-MEL-5.

Regarding `Cc1cccc(C)c1NC(=S)NC=C1C(=O)c2ccccc2C1=O`, the GI50 is 9.29 µM (inactive) with UO-31; 1.44 µM (inactive) in the experiment on OVCAR-8; 6.78 µM (inactive) in the experiment with A549; 23.2 µM (inactive) in the experiment on HOP-62; 9.42 µM (inactive) in the experiment on SN12C; 5.24 µM (inactive) with UACC-62. The GI50 in the experiment on DU-145 is 12.1 µM (inactive); with NCI-H23 it was 16.6 µM (inactive); in the experiment on UACC-257 it was 12.4 µM (inactive); with RPMI-8226, 3.07 µM (inactive); in the experiment on BT-549, 4.84 µM (inactive); in the experiment on COLO 205, 3.52 µM (inactive). For the same compound, the GI50 with SW-620 is 6.85 µM (inactive); in the experiment with SK-MEL-2 it was 16 µM (inactive); with NCI-H226, 46.1 µM (inactive); with NCI/ADR-RES, 16.8 µM (inactive); in the experiment with MDA-MB-435, 7.5 µM (inactive); in the experiment on SK-MEL-5, 7.91 µM (inactive).

With `C=C(C)C(=O)OC1C[C@H](COC(C)=O)C2CC=C(CO)C2C2OC(=O)C(=C)[C@H]12` (stereo partly specified), the GI50 in the experiment on UO-31 is 39.2 µM (inactive); in the experiment with OVCAR-8, > 100 µM (inactive); in the experiment with A549, > 100 µM (inactive); in the experiment on HOP-62, > 100 µM (inactive); in the experiment with UACC-62, 39.6 µM (inactive); in the experiment on DU-145, > 100 µM (inactive). In addition, the GI50 is 42.8 µM (inactive) with NCI-H23; 38.8 µM (inactive) with UACC-257; 12.4 µM (inactive) in the experiment with RPMI-8226; 16.8 µM (inactive) with Malme-3M; 61.1 µM (inactive) in the experiment with BT-549; 16.4 µM (inactive) in the experiment with COLO 205. Besides, the GI50 with SW-620 was 16.2 µM (inactive); in the experiment on SK-MEL-2, 40.3 µM (inactive); in the experiment on NCI-H226 it was > 100 µM (inactive); in the experiment with NCI/ADR-RES, 45.4 µM (inactive); with MDA-MB-435, 35.3 µM (inactive); in the experiment with SK-MEL-5, > 100 µM (inactive).

As for `CCCCCCCCCCCC[C@@H](O)[C@H]1CC[C@H]([C@H](O)CC[C@H](O)[C@@H]2CC[C@@H](CCCCCCCC3=C[C@H](C)OC3=O)O2)O1`, the GI50 was > 50 µM (inactive) in the experiment on UO-31; > 50 µM (inactive) with OVCAR-8; > 50 µM (inactive) in the experiment on A549; > 50 µM (inactive) in the experiment on HOP-62; 3.99 µM (inactive) in the experiment with SN12C; 1.53 µM (inactive) in the experiment on UACC-62. For the same compound, the GI50 with DU-145 was 7.55 µM (inactive); in the experiment on NCI-H23 it was > 18.1 µM (inactive); in the experiment on UACC-257 it was > 14.9 µM (inactive); in the experiment on RPMI-8226 it was > 37.2 µM (inactive); in the experiment with Malme-3M, > 50 µM (inactive); in the experiment with BT-549, > 50 µM (inactive). Moreover, the GI50 in the experiment with COLO 205, with SW-620, in the experiment with SK-MEL-2, in the experiment with NCI-H226, in the experiment with NCI/ADR-RES and with MDA-MB-435 was > 50 µM (inactive) in each case.

As to `Cn1c(=O)c2c(nc3n2CC(=O)N3CCCCl)n(C)c1=O`, the GI50 in the experiment on UO-31, in the experiment with OVCAR-8, in the experiment with A549, in the experiment with HOP-62, in the experiment with SN12C and in the experiment with UACC-62 was > 100 µM (inactive) in each case. Also, the GI50 with DU-145, in the experiment with NCI-H23, in the experiment with UACC-257, in the experiment with RPMI-8226, in the experiment on BT-549 and in the experiment with COLO 205 was > 100 µM (inactive) each time. Also, the GI50 in the experiment with SW-620, with SK-MEL-2, with NCI-H226, in the experiment with NCI/ADR-RES, in the experiment with MDA-MB-435 and with SK-MEL-5 was > 100 µM (inactive) throughout.

Turning to `COc1cc(-c2oc3c(OC)cc(OC)c(O)c3c(=O)c2OC)cc(OC)c1OC`, the GI50 was 33 µM (inactive) in the experiment on UO-31; 5.21 µM (inactive) in the experiment on OVCAR-8; > 100 µM (inactive) in the experiment on A549; 2.06 µM (inactive) in the experiment on HOP-62; > 100 µM (inactive) in the experiment on SN12C; 23.6 µM (inactive) in the experiment on UACC-62. Moreover, the GI50 in the experiment with DU-145 was 32.7 µM (inactive); in the experiment on NCI-H23, 36.3 µM (inactive); in the experiment with RPMI-8226 it was > 100 µM (inactive); in the experiment with Malme-3M it was 5.97 µM (inactive); in the experiment on BT-549, 5.32 µM (inactive); with COLO 205, > 100 µM (inactive). In addition, the GI50 was 6.28 µM (inactive) with SW-620; > 100 µM (inactive) with NCI-H226; 5.46 µM (inactive) with NCI/ADR-RES; > 100 µM (inactive) in the experiment with MDA-MB-435; 20.7 µM (inactive) in the experiment on SK-MEL-5.

As to `COC(=O)[C@]12CC[C@H]3CC[C@H]([C@H]31)[C@H](c1ccccc1)N2`, the GI50 in the experiment with UO-31 was 17.4 µM (inactive); with OVCAR-8, 17.4 µM (inactive); in the experiment with A549 it was 17.7 µM (inactive); in the experiment with HOP-62 it was 17.4 µM (inactive); in the experiment on SN12C it was 15.7 µM (inactive); with UACC-62 it was 14.4 µM (inactive). In addition, the GI50 is 18.5 µM (inactive) with DU-145; 16.8 µM (inactive) with NCI-H23; 15.1 µM (inactive) with UACC-257; 14.2 µM (inactive) in the experiment on RPMI-8226; 18.4 µM (inactive) in the experiment with BT-549; 16.5 µM (inactive) in the experiment on COLO 205. Moreover, the GI50 in the experiment with SW-620 is 22.2 µM (inactive); in the experiment with SK-MEL-2, 15.2 µM (inactive); in the experiment with NCI-H226, 15.4 µM (inactive); in the experiment on NCI/ADR-RES it was 13.9 µM (inactive); in the experiment on MDA-MB-435, 18.3 µM (inactive); in the experiment on SK-MEL-5, 14.7 µM (inactive).

Turning to `CS(=O)(=O)OCC1CN(S(C)(=O)=O)c2cc(O)ccc21` (stereo unspecified), the GI50 in the experiment on UO-31 is 3.26 µM (inactive); with OVCAR-8 it was 2.67 µM (inactive); in the experiment on A549, 3.43 µM (inactive); with HOP-62, 2.47 µM (inactive); with SN12C, 2.92 µM (inactive); with DU-145 it was 2.8 µM (inactive). The GI50 in the experiment with NCI-H23 is 1.72 µM (inactive); in the experiment with UACC-257 it was 2.68 µM (inactive); in the experiment on RPMI-8226, 1.87 µM (inactive); in the experiment with Malme-3M it was 2.02 µM (inactive); in the experiment with BT-549, 2.19 µM (inactive); in the experiment with COLO 205 it was 2.3 µM (inactive). Further, the GI50 is 2.84 µM (inactive) in the experiment with SW-620; 2.59 µM (inactive) in the experiment with SK-MEL-2; 3.33 µM (inactive) with NCI-H226; 3.09 µM (inactive) in the experiment with NCI/ADR-RES; 2.02 µM (inactive) in the experiment with MDA-MB-435; 1.69 µM (inactive) in the experiment with SK-MEL-5.
